Measured values from patent US20100093862A1, “POTENTIATION OF CELLULAR IMMUNITY USING HISTONE DEACETYLASE (HDAC) INHIBITORS” (Sapporo Medical Univeristy and Japan Science and Technology …, priority 2006, published 2010).

What was measured:
HMC-1 cells [1] = assay: Flow cytometry of cell surface MHC class I antigen (W6/32 antibody), HMC-1 cells; type: cell-based, human; conditions: vs non-treated
Method: (§1) Using the same cells as those in the examples 1 and 2, MCF-7 cells and HMC-1 cells were cultured for 24 hours in the presence of HDAC inhibitor TSA (100 nM) or for 48 hours in the presence of HDAC inhibitor VPA (4 mM), respectively, and the level of MHC class I antigen expressing on the cell surface was analyzed by a flow cytometer (Becton Dickinson).
(§2) (1) 1×10^6 cells were floated in […] PBS buffer, added a primary antibody (an antipan-HLA class I antibody W6/32 (Barnstable, C. J., Bodmer, W. J., Brown, G., Galfre, G., Milstein, C., Williams, A. F., and Zeigler, A. (1978) Cell 14, 9-20)) and incubated for 40 minutes at 4° C. (2) The cells were washed twice with PBS. (3) To the suspended cell was added a secondary antibody (FITC-labeled anti-mouse IgG antibody (IPL, USA)) and incubated for 40 minutes at 4° C. (4) The cells were washed twice with PBS, floated in PBS added with 1% formalin followed by analyzing FITC level of the cell surface by a flow cytometer.

class I and II HDAC = conditions: Non-patent documents 5 and 6; cited from earlier work
HMC-1 cells [2] = assay: Western blot of intracellular B2M, HLA class I heavy chain and actin, HMC-1 cells; type: cell-based, human; conditions: TSA 100 nM, 24 hours
Method: (§3) (1) Using the same cells as those in the example 1, MCF-7 cells and HMC-1 cells were cultured in the presence of TSA, a HDAC inhibitor, (100 nM) for 24 hours respectively, followed by harvesting them. (2) 1×10^6 cells are lysed in […] cell lysate (RIPA buffer) and a soluble fraction is harvested as a lysate. SDS sample buffer was added to the lysate. (3) The protein samples were loaded on 7.5% SDS polyacrylamide gel and electrophoresed. (4) The proteins in the gel were transferred on a PVDF membrane (Millipore). (5) The transferred membrane was immersed in 5% skim milk in PBS and blocked for about one hour. (6) The transferred membrane was immersed in a primary antibody (anti-pan-HLA class I heavy chain antibody EMR8-5 (Hokudo, Sapporo), or anti-B2M antibody EMRB6 (Hokudo, Sapporo), or anti-actin antibody (DAKO), and incubated for one hour at room temperature. (7) The transferred membrane was washed with a lavage PBS-T (0.05% Tween 20/PBS, pH7.4) three times. (8) The transferred membrane was immersed in a secondary antibody peroxidase-labeled anti-mouse IgG antibody (KPL, USA) and incubated for one hour at room temperature. (9) The transferred membrane was washed with a lavage PBS-T (0.05% Tween 20/PBS, pH7.4) three times. […] (11) Luminescent signals were detected by exposure to X ray film.

MCF-7 cells [3] = assay: Chromatin immunoprecipitation with anti-acetylated histone H3 antibody and PCR of B2M gene, MCF-7 cells; type: cell-based, human; conditions: 100 nM TSA, 24 hours
Method: (§4) Human breast cancer cell lines, that is, MCF-7 cells and HMC-1 cells were used to culture in the presence of 100 nM TSA (Sigma, USA) for 24 hours or 4 mM VPA (Sigma, USA) for 48 hours, respectively followed by extracting chromatin from the cells according to the manufacturer's instructions (Upstate Inc., USA) and immunoprecipitating the chromatin using anti-acetylated histone H3 antibody (Upstate Inc., USA) (see Assam El-Osta, et al. 2002. MOLECULAR AND CELLULAR BIOLOGY 22(6). p. 1844-1857). The genes binding to the acetylated histones were amplified by using PCR with the B2M gene-specific primers ([…] and […]), electrophoresed on 1% agarose gel followed by detecting with a transilluminator in the presence of ethidium bromide.

MCF-7 cells [4] = assay: Flow cytometry of cell surface MHC class I antigen (W6/32 antibody), MCF-7 cells; type: cell-based, human; conditions: TSA 100 nM, 24 hours, vs non-treated
Method: as §1, §2

MCF-7 cells [5] = assay: Western blot of intracellular B2M, HLA class I heavy chain and actin, MCF-7 cells; type: cell-based, human; conditions: TSA 100 nM, 24 hours
Method: as §3

[6] = tested on: Papilloma virus persistent infection cells (HeLa cells); assay: Flow cytometry of cell surface HLA class I, papilloma virus persistent infection cells; type: cell-based; conditions: 4 mM valproic acid, 48 hours
Method: (§5) Papilloma virus persistent infection cells (HeLa cells) were cultured in 4 mM valproic acid-added culture medium (RPMI1640) or non additive culture medium for 48 hours, and reacted with an anti-pan-HLA class I antibody, W6/32 antibody and with FITC-labeled anti-mouse IgG antibody for 40 minutes respectively, and the cells were fixed in 0.1% formalin/PBS. The fluorescence intensities were measured by flow cytometer (FACS can, Beckton Dickinson).

[7] = tested on: human breast cancer cell line MCF7 cells transplanted into SCID mice; assay: Immunostaining of MCF7 tumor transplanted into SCID mice after oral VPA; type: in vivo; conditions: SCID mouse, water containing 0.4% VPA for 10 days, vs control
Method: A human breast cancer cell line MCF7 cells were transplanted into SCID mice. […] One mouse was supplied with water containing 0.4% valproic acid (VPA, Sigma) for 10 days, and the other mouse was supplied with water with no additive as control. […] Following the method according to example 4, treatment of tissue slices as well as immunostaining with anti-HLA class I antibody (EMR8-5) and anti-B2M antibody (EMR-B6) were performed.

[8] = tested on: HIV infection T cells (clone 8E5); assay: Flow cytometry of cell surface HLA class I, HIV infection T cells; type: cell-based; conditions: HIV infection T cells (8E5), 4 mM valproic acid, 48 hours
Method: as §5, with “HIV” for “Papilloma virus persistent”, “infection T” for “infection”, “(clone 8E5, purchased from ATCC)” for “(HeLa cells)”, “(FACScan,” for “(FACS can,”

[9] = tested on: Measles virus persistent infection B cells (Raji-ZH cells); assay: Flow cytometry of cell surface HLA class I, measles virus persistent infection B cells; type: cell-based; conditions: 4 mM valproic acid, 48 hours
Method: as §5, with “Measles” for “Papilloma”, “infection B” for “infection”, “(Raji-ZH” for “(HeLa”, “(FACScan,” for “(FACS can,”

[10] = tested on: Mumps virus persistent infection B cells (Akata-MP1 cells); assay: Flow cytometry of cell surface HLA class I, mumps virus persistent infection B cells; type: cell-based; conditions: 4 mM valproic acid, 48 hours
Method: as §5, with “Mumps” for “Papilloma”, “infection B” for “infection”, “(Akata-MP1” for “(HeLa”, “(FACScan,” for “(FACS can,”

[11] = tested on: EB virus persistent infection B cells (LG2EBV cells); assay: Flow cytometry of cell surface HLA class I, EB virus persistent infection B cells; type: cell-based; conditions: 4 mM valproic acid, 48 hours
Method: as §5, with “EB” for “Papilloma”, “infection B” for “infection”, “(LG2EBV” for “(HeLa”, “(FACScan,” for “(FACS can,”

HMC-1 cells [12] = assay: Chromatin immunoprecipitation with anti-acetylated histone H3 antibody and PCR of B2M gene, HMC-1 cells; type: cell-based, human; conditions: 4 mM VPA, 48 hours
Method: as §4

| Compound | increase of MHC class I level of the cell surface (HMC-1 cells [1]; TSA 100 nM, 24 hours) | HDAC class selectivity (class I and II HDAC) | expression level of intracellular HLA heavy chain and actin proteins (HMC-1 cells [2]) | level of intracellular B2M protein (HMC-1 cells [2]) | B2M gene detected in anti-acetylated histone H3 immunoprecipitate (MCF-7 cells [3]) | increase of MHC class I level of the cell surface (MCF-7 cells [4]) | expression level of intracellular HLA heavy chain and actin proteins (MCF-7 cells [5]) | level of intracellular B2M protein (MCF-7 cells [5]) | increase of MHC class I level of the cell surface (HMC-1 cells [1]; VPA 4 mM, 48 hours) | HLA class I level on a cell surface [6] | expression level of B2M in tumor [7] | expression level of HLA class I antigen in tumor [7] | HLA class I level on a cell surface [8] | HLA class I level on a cell surface [9] | HLA class I level on a cell surface [10] | HLA class I level on a cell surface [11] | B2M gene detected in anti-acetylated histone H3 immunoprecipitate (HMC-1 cells [12]) |
| --- | --- | --- | --- | --- | --- | --- | --- | --- | --- | --- | --- | --- | --- | --- | --- | --- | --- |
| CC(/C=C/C(=O)NO)=C\[C@@H](C)C(=O)c1ccc(N(C)C)cc1 [TSA, tricostatin A] | about 10 times | inhibits class I and II HDAC | no great difference | remarkably increased | B2M gene was detected together with acetylated histones | about 10 times | no great difference | remarkably increased | – | – | – | – | – | – | – | – | – |
| CCCC(CCC)C(=O)O [VPA, valproic acid] | – | preferably inhibits class I MAC compared with class II HDAC | – | – | – | – | – | – | about 10 times | recovery of expression was observed | increased compared to control group | increased compared to control group | recovery of expression was observed | recovery of expression was observed | recovery of expression was observed | recovery of expression was observed | B2M gene was detected together with acetylated histones |
